In one assay the target is T1, sigma σ1 receptor.
T1 construct: gene SIGMAR1; PDSP has often used guinea pig or rat tissue for sigma1
Briefly: PDSP radioligand competition binding. An excerpt:
PDSP radioligand competition binding on sigma σ1 receptor

Another assay deals with T2, sigma σ2 receptor.
T2 construct: gene TMEM97; PDSP has often used rat PC12 cells or guinea pig tissue for sigma2
Briefly: PDSP radioligand competition binding. Conditions: read-out: [drawing 1]. An excerpt: PDSP radioligand competition binding on sigma σ2 receptor

pKi: −log10 of the molar value. Where two headings read alike, the source gives them in different places.

For `c1cc2c(nc1NC1=NCCN1)CCCC2` [compound 2], the pKi on sigma σ1 receptor (read-out: [drawing 2]) was 6.75.
Take `N=C(N)Nc1ccc2c(n1)CCCC2` [compound 1]: the pKi on sigma σ1 receptor (read-out: [drawing 1]) is 6.58; on sigma σ2 receptor it was 6.26.
